In article PMC11420946, “An Engineered Nisin Analogue with a Hydrophobic Moiety Attached at Position 17 Selectively Inhibits Enterococcus faecium Strains” (ACS Chemical Biology, 2024):
In brackets after ≈: the same amount, converted by molar mass.

Key:
Listeria monocytogenes = experiment: Agar well diffusion assay against Listeria monocytogenes; type: cell-based; conditions: Figure 4, second round; 30 μL click reaction solution in 8 mm well, LB agar, overnight 37 °C; triplicate
Procedure: (§1) To confirm that this procedure yields the modified nisin and at high purity, HPLC analysis of purified 47 was performed (Figure S2). Based on the area of the peaks, the purity of 47 is 96%. Subsequently, 30 μL of 0.1 mg mL^–1 purified compound was added to the well to assess their activity.
(§2) Cultures grown overnight were introduced into 0.8% LB agar for Listeria monocytogenes or GM17 agar for Enterococcus faecium at a temperature of 45 °C, reaching a final concentration of 0.1% (v/v). Subsequently, 30 mL of the mixture was poured onto the plate. Upon solidification of the agar, 8 mm wells were created, and 30 μL of the aforementioned clicked solutions was spotted into the wells. The agar plate underwent overnight incubation at 37 °C followed by measurement of inhibition zones. By comparing the antimicrobial impact of the click chemistry products in this screening assay, we assume that the yields of the different reactions are similar. Zone diameters were recorded in millimeters, with the zone area (πr^2) minus the well area (πr^2) measured in millimeters.[44]

E. faecium LMG11423 = experiment: Spot-on-lawn assay; type: cell-based; conditions: triplicate
L. monocytogenes TT82E = experiment: Spot-on-lawn assay; type: cell-based; conditions: triplicate
[1] = tested on: E. faecium ATCC E1162 (ARE); experiment: Spot-on-lawn assay; type: cell-based; conditions: triplicate
B. cereus CH-85 = experiment: Spot-on-lawn assay; type: cell-based; conditions: triplicate
[2] = tested on: E. faecium ATCC E1321 (AGRE); experiment: Spot-on-lawn assay; type: cell-based; conditions: triplicate
S. aureus LMG10147 = experiment: Spot-on-lawn assay; type: cell-based; conditions: triplicate
[3] = tested on: E. faecium LMG16003 (VRE); experiment: Spot-on-lawn assay; type: cell-based; conditions: triplicate
[4] = tested on: L. monocytogenes LMG10470; experiment: Spot-on-lawn assay; type: cell-based; conditions: triplicate
[5] = tested on: E. faecium ATCC U0317 (ACRE); experiment: Spot-on-lawn assay; type: cell-based; conditions: triplicate
[6] = tested on: E. faecalis LMG16216 (VRE); experiment: Spot-on-lawn assay; type: cell-based; conditions: triplicate
[7] = tested on: S. aureus LMG15975 (MRSA); experiment: Spot-on-lawn assay; type: cell-based; conditions: triplicate
Escherichia coli CECT101 = experiment: Spot-on-lawn assay; type: cell-based; conditions: triplicate
Enterococcus faecium = experiment: Agar well diffusion assay against Enterococcus faecium; type: cell-based; conditions: for Antibacterial activity against Enterococcus faecium (in words): Figure 5, HPLC-purified peptide, 30 μL of 0.1 mg mL^–1 per well
Procedure: as §1, §2

[8] = Effect of temperature on antibacterial activity (thermal stability); type: physicochemical; conditions: higher temperatures of 22, 55, 70, 90 °C, 8 h storage; read-out inhibition zone area on L. lactis MG1363 relative to 0 h; three independent experiments
Procedure: Figure S4. Investigation of the thermal stability profile of nisin (compound 1) and compound 47. Thermal stability was evaluated across a temperature range from 22 to 90 °C within an 8-hour incubation period.
Relative antimicrobial activity of the peptides following exposure to different temperatures. The relative activity was determined by calculating the area at different time points divided by the area at the start point (labeled 0 h), multiplied by 100%. Three independent experiments were conducted.

[9] = tested on: Enterococcus faecium LMG16003 (VRE); type: cell-based; conditions: as stated in the abstract
Procedure: Minimal inhibitory concentration (MIC) values were determined through broth microdilution following standard guidelines.[29]

human red blood cells = experiment: Hemolysis assay; type: cell-based; conditions: 200 mg/L versus MIC
Procedure: Considering the potential therapeutic application of a bacteriocin, ensuring its safety is of critical importance. Previous studies have identified hemolytic activities in certain bacteriocins, such as listeriolysin S from Listeria monocytogenes([33]) and cytolysin from Enterococcus faecalis.[34] […] Therefore, a close evaluation of the safety of new bacteriocins is essential. In this study, a hemolytic activity assay was conducted to assess the safety of compounds 16 and 47. In this assay, human blood cells were incubated with varying concentrations of compound 16, compound 47, and nisin, ranging from 0.39 to 200 mg/L. Following a 1 h incubation at 37 °C, we measured the OD414 of the supernatants, and hemolytic activities were calculated, with 10% Triton X-100 serving as a positive control.
Erythrocytes were sourced from a healthy human volunteer donor, and whole human blood was subjected to centrifugation at 600g for 15 min. Subsequently, plasma was removed, and the erythrocytes were subjected to three washes with PBS (pH 7) by centrifugation at 600g for 15 min each. […] The supernatant was transferred to a 96-well plate, and absorbance was measured at a wavelength of 414 nm using a Thermo Scientific Varioskan LUX multimode microplate reader. The absorbance, relative to the positive control treated with 10% Triton X-100, was defined as the percentage of hemolysis.

chymotrypsin = experiment: Effect of proteolytic enzymes on antibacterial activity: chymotrypsin; conditions: 30 μL peptide 1 mg mL^–1 in agar well with 1 mg mL^–1 chymotrypsin, pH 7.2, overnight 30 °C; read-out inhibition zone area on L. lactis MG1363 versus no-enzyme control; three independent experiments
Procedure: (§3) Next the resistance against the proteolytic enzymes trypsin, chymotrypsin, and protease K was investigated by adding these enzymes in separate experiments to assay wells followed by overnight incubation at 30 °C.
(§4) The impact of proteolytic enzymes and temperature on antimicrobial activity was investigated using the representative strain L. lactis MG1363 through the agar well diffusion assay. Thirty microliters of the HPLC purified peptide (1 mg mL^–1) was directly introduced into the agar well containing a final concentration of 1 mg mL^–1 proteolytic enzymes (pH 7.2) or no proteolytic enzyme (control). The plates were incubated overnight at 30 °C followed by the measurement of inhibition zones. Temperature stability was assessed by incubating the peptide at 22, 55, 70, and 90 °C for the specified duration.

[10] = Spot-on-lawn assay to measure peptide-lipid II complex formation; type: binding; conditions: lipid II 300 μM, 2 μL spotted at edge of halo; lawns of E. faecium and S. aureus, overnight 37 °C
Procedure: To assess the interaction between the HPLC purified peptide and lipid II, an overnight culture was introduced into 0.8% GM17 medium for E. faecium or LB medium for S. aureus (w/v, temperature 45 °C) at a final concentration of 1% (v/v). Subsequently, this mixture was evenly distributed onto 10 mL plates. The binding affinity of the peptide and lipid II was further examined by applying purified lipid II (300 μM, 2 μL) to the periphery of the antibiotic inhibition halo. Briefly, HPLC purified antimicrobials were initially applied to the agar plate, and once the antimicrobial solution drops had dried, lipid II was spotted along the edge of the inhibition halo. The plates were then incubated overnight at 37 °C.

proteinase K = proteinase K (Parengyodontium album, UniProt P06873); experiment: Effect of proteolytic enzymes on antibacterial activity: proteinase K; conditions: 30 μL peptide 1 mg mL^–1 in agar well with 1 mg mL^–1 proteinase K, pH 7.2, overnight 30 °C; read-out inhibition zone area on L. lactis MG1363 versus no-enzyme control; three independent experiments
Procedure: as §3, §4

Sequence of proteinase K (P06873 106-384): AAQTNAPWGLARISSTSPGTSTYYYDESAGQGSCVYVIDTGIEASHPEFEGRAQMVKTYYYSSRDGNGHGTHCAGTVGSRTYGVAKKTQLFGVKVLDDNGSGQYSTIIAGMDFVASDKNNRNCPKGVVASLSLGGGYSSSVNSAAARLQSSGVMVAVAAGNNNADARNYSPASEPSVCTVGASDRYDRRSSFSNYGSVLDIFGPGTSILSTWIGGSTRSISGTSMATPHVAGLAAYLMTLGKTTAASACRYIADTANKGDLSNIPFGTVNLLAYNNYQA

SMILES	Antimicrobial activity, diameter rating (E. faecium LMG11423)	Antimicrobial activity, diameter rating (L. monocytogenes TT82E)	Antimicrobial activity, diameter rating [1]	Antimicrobial activity, diameter rating (B. cereus CH-85)	Antimicrobial activity, diameter rating [2]	Antimicrobial activity, diameter rating (S. aureus LMG10147)	Antimicrobial activity, diameter rating [3]	Antimicrobial activity, diameter rating [4]	Antimicrobial activity, diameter rating [5]	Antimicrobial activity, diameter rating [6]	Antimicrobial activity, diameter rating [7]	Antimicrobial activity, diameter rating (Escherichia coli CECT101)	Antibacterial activity against Enterococcus faecium (in words) (Enterococcus faecium)	other results
C=C(NC(=O)[C@@H](NC(=O)[C@H](Cc1c[nH]cn1)NC(=O)[C@@H](NC(=O)[C@H](CO)NC(=O)[C@@H]1CS[C@@H](C)[C@H]2NC(=O)[C@H](C)NC(=O)[C@H](NC(=O)[C@H](CCCCN)NC(=O)[C@@H](NC(=O)[C@H](CC(N)=O)NC(=O)[C@@H]3CS[C@@H](C)[C@@H](NC(=O)[C@H](CCCCN)NC(=O)[C@@H]4CS[C@@H](C)[C@@H](NC(=O)[C@@H]5CSC[C@@H](NC(=O)/C(=C/C)NC(=O)[C@@H](N)[C@@H](C)CC)C(=O)N[C@@H]([C@@H](C)CC)C(=O)NC(=C)C(=O)N[C@@H](CC(C)C)C(=O)N5)C(=O)N5CCC[C@H]5C(=O)NCC(=O)N4)C(=O)NCC(=O)N[C@@H](C)C(=O)N[C@@H](CC(C)C)C(=O)N[C@@H](CCn4cc(CCCCCCCC)nn4)C(=O)NCC(=O)N3)C(C)C)[C@H](C)SC[C@H](NC2=O)C(=O)N[C@@H](Cc2c[nH]cn2)C(=O)N1)[C@@H](C)CC)C(C)C)C(=O)N[C@@H](CCCCN)C(=O)O [compound 16]	+++++ (16–20 mm, +++++)	++ (4–8 mm, + +)	++++ (12–16 mm, ++++)	++ (4–8 mm, + +)	++++ (12–16 mm, ++++)	+ (0–4 mm, +)	++++ (12–16 mm, ++++)	++ (4–8 mm, + +)	++++ (12–16 mm, ++++)	++ (4–8 mm, + +)	+ (0–4 mm, +)	+ (0–4 mm, +)	high potency of nisin against Enterococcus faecium was retained	Area2: area of the inhibition zone minus the well area, Listeria monocytogenes (Listeria monocytogenes): 19 mm^2; Area1: area of the inhibition zone minus the well area, Enterococcus faecium (Enterococcus faecium; Figure 4, second round, 30 μL click reaction solution in 8 mm well, GM17 agar, overnight 37 °C, triplicate): 51 mm^2
C=C(NC(=O)[C@@H](NC(=O)[C@H](Cc1c[nH]cn1)NC(=O)[C@@H](NC(=O)[C@H](CO)NC(=O)[C@@H]1CS[C@@H](C)[C@H]2NC(=O)[C@H](C)NC(=O)[C@H](NC(=O)[C@H](CCCCN)NC(=O)[C@@H](NC(=O)[C@H](CC(N)=O)NC(=O)[C@@H]3CS[C@@H](C)[C@@H](NC(=O)[C@H](CCCCN)NC(=O)[C@@H]4CS[C@@H](C)[C@@H](NC(=O)[C@@H]5CSC[C@@H](NC(=O)/C(=C/C)NC(=O)[C@@H](N)[C@@H](C)CC)C(=O)N[C@@H]([C@@H](C)CC)C(=O)NC(=C)C(=O)N[C@@H](CC(C)C)C(=O)N5)C(=O)N5CCC[C@H]5C(=O)NCC(=O)N4)C(=O)NCC(=O)N[C@@H](C)C(=O)N[C@@H](CC(C)C)C(=O)N[C@@H](CCn4cc(CCCc5ccccc5)nn4)C(=O)NCC(=O)N3)C(C)C)[C@H](C)SC[C@H](NC2=O)C(=O)N[C@@H](Cc2c[nH]cn2)C(=O)N1)[C@@H](C)CC)C(C)C)C(=O)N[C@@H](CCCCN)C(=O)O [compound 47]	+++++ (16–20 mm, +++++)	++ (4–8 mm, + +)	++++ (12–16 mm, ++++)	++ (4–8 mm, + +)	++++ (12–16 mm, ++++)	+ (0–4 mm, +)	++++ (12–16 mm, ++++)	++ (4–8 mm, + +)	++++ (12–16 mm, ++++)	++ (4–8 mm, + +)	+ (0–4 mm, +)	+ (0–4 mm, +)	high potency of nisin against Enterococcus faecium was retained	Loss in antimicrobial activity on storage at elevated temperature [8]: Less than 40%; MIC value against E. faecium strains [9]: 3.8 µg/mL (≈ 1.1 µM); Concentration with minimal hemolytic activity (200 mg/L) relative to MIC against Enterococcus faecium (human red blood cells): 50 fold; Loss in antimicrobial activity after exposure to chymotrypsin (chymotrypsin): 16%; Binding to lipid II (effect of added purified lipid II on the inhibition halo) [10]: retained its ability to bind to lipid II; Loss in antimicrobial activity after exposure to proteinase K (proteinase K): 77%
